Entries after “also recorded” stand apart in the source; their conditions may differ.
What was measured:
mouse tracheal rings [1] = assay: Bronchodilation of cytokine-treated mouse tracheal rings; conditions: overnight IL-1β, TNFα, IL-13 100 ng/ml, EC75 carbachol
Procedure: Airway rings were treated overnight in 2 ml DMEM + PSG/HEPES/AA/NaPyr buffer alone or with the same solution supplemented with 100 ng/ml of mTNFα, mIL-13 and mIL-1β. Unlike like the typical Wake-Up protocol and ring qualifying tests, mouse tracheal rings were not exposed to KPSS and rings were not observed to relax with a β-agonist following discovery of CCh dose-responses. After several washes with PSS, EC75 concentrations of CCh were used to pre-contract rings for >30 min alone or in the presence of cytokines.

mouse airway rings = assay: Duration of bronchodilation after washout and carbachol re-challenge, mouse airway rings; conditions: EC75 carbachol, preliminary
Procedure: Mouse airway rings were exposed to a typical Wake-Up procedure including the use of KPSS and discovery of EC75 CCh dose responses. However, no isoproterenol was used to observe tissue relaxation as part of the qualification procedure. With pre-contraction with EC75 CCh for >30 min, rings were subjected to a compound dose-response, followed by a complete washout of compound, and re-contracted with EC75 CCh. Traces were recorded for several hours thereafter and normalized to theophylline as control of 100% relaxation.

mouse tracheal rings [2] = assay: β-agonist use-dependent desensitization of mouse tracheal rings; conditions: add-on after isoproterenol round 2
Text: Standard procedures were used to prepare and mount tissues.

[3] = test system: Wnt/β-catenin transcription; assay: Wnt/β-catenin transcription TOPFlash reporter assay; type: cell-based; conditions: Wnt TopFlash IC50 over TMEM16A eYFP IC50
[4] = test system: primary human airway smooth muscle cells; assay: Methacholine-induced depolarization of primary human airway smooth muscle cells; type: cell-based; conditions: donor 199524, 20 M methacholine (so in the source), read-out: EC50 inhibition of methacholine-induced depolarization (converted)
Procedure: Cultured human bronchial smooth muscle cells (BSMC) from Lonza were resuspended in Smooth Muscle Growth Medium-2 (SmGM-2; Lonza) at a concentration of 4 × 10^5 cells per ml. One hundred microliters of cells per well were plated in a black wall clear bottom polystyrene 96-well tissue culture plate and incubated in a 37°C humidified incubator with 5% CO2 overnight. Cells were serum starved by removing the SmGM-2 and replaced with one hundred microliters per well of Smooth Muscle Cell Basal Medium 2 (SmBM-2), phenol red-free (PromoCell), and incubated in a 37°C humidified incubator with 5% CO2 for 24 h. SmBM-2 was replaced with 100 microliters of fresh SmBM-2. […] Using the FLIPR-Tetra (Molecular Devices), three measurements of the baseline fluorescence were taken over the span of 1 min. […] Fifty-five fluorescence measurements were taken over the span of 14 min. The area under the curve (AUC) from the fluorescence kinetic traces (normalized to baseline fluorescence) were calculated. The amount of fluorescence in the presence of compound compared with that in the presence of DMSO vehicle alone (HI control) was calculated using the formula: % control (POC) = (compd – average LO)/(average HI – average LO)^∗100. […]
Panels (B-D) show raw fluorescence data from the membrane potential assay of buffer alone (dashed line), buffer plus 20 µM methacholine […]
RFU = relative fluorescence units. […]

HCT116 = test system: HCT116; design: method as in Li et al., 2014; conditions: ref Li et al., 2014, read-out: IC50 inhibition of proliferation; cited from earlier work
COLO205 = test system: COLO205; design: method as in Li et al., 2014; conditions: ref Li et al., 2014, read-out: IC50 inhibition of proliferation; cited from earlier work
HT29 = test system: HT29; design: method as in Li et al., 2014; conditions: ref Li et al., 2014, read-out: IC50 inhibition of proliferation; cited from earlier work

Compound	bronchodilation of cytokine-treated airways (mouse tracheal rings [1])	duration of bronchodilation after washout and re-challenge (mouse airway rings)	IC50 Ratio, Wnt/TMEM16A [3]	also measured
CCc1oc2ccccc2c1C(=O)c1cc(Br)c(O)c(Br)c1 [Benzbromarone]	fully bronchodilated	long lasting; also recorded: sustained bronchodilation lasting several hours		
COc1cc([N+](=O)[O-])ccc1NC(=O)c1cc(Cl)c2ccccc2c1O [Cpd 4]				% relaxation after add-on to desensitized ring (mouse tracheal rings [2]; EC50 carbachol): 98.9%; % relaxation after add-on to desensitized ring (mouse tracheal rings [2]; EC75 carbachol): 95.4%
O=C(Nc1ccc(Cl)cc1)c1cc(Cl)ccc1O [Cpd 5]			3.51	
Oc1ccc(Cl)cc1Cc1cc(Cl)ccc1O [Dichlorophen]				EC50 [4]: 3700 nM
O=C(Nc1ccc([N+](=O)[O-])cc1Cl)c1cc(Cl)ccc1O [Niclosamide]	fully bronchodilated	long lasting; also recorded: sustained bronchodilation lasting several hours	2.62	IC50 (HCT116): 370 nM; IC50 (COLO205): 980 nM; IC50 (HT29): 4170 nM

Source: PMC6382696, “Drug Repurposing: The Anthelmintics Niclosamide and Nitazoxanide Are Potent TMEM16A Antagonists That Fully Bronchodilate Airways” (Frontiers in Pharmacology, 2019)
